Patent US9179694B2, “Method and composition for enhancing milk production and milk component concentrations” (PURINA ANIMAL NUTRITION LLC, priority 2003, dated 2015)

Test: Dry matter feed intake in sorbitol feeding trials
Type: in vivo, Holstein cows
Settings: for increase in dry matter feed intake: Pre-Partum Trial #1 (75 g/day wk −3..−1 only) versus Control Trial #1
Description: To determine the dry matter weight (or dry matter basis or dry basis) of a particular sample, the sample is first weighed. The weighed sample is then dried in an oven at a temperature that is adequate to drive off moisture from the sample without degrading the sample components, such as a temperature ranging from about 100° C. to about 110° C. The oven drying is continued until the weight of the dried sample remains constant, despite additional oven drying. During the pre-partum period, for all cows utilized in Example One or Example Two, the pre-partum control feed, as modified to include any sorbitol indicated above for the different trials, was placed in the feeding troughs of the different cows participating in the different trials once daily in the morning. Thereafter, these different pre-partum feeds (the pre-partum control feed, including any incorporated sorbitol dosage of a particular trial during the pre-partum period) of the different trials were lightly stirred, separately and individually, in front of the cows of the different trials three times per day during the pre-partum period to encourage additional feed ingestion by the cows. Leftover rations from the previous day's feeding were collected and weighed from each feeding trough during the pre-partum period, prior to feeding the test cows on a subsequent day. The cows of the different trials received a sufficient amount of the pre-partum to ensure at least about ten weight percent of the pre-partum feeds of the different trials remained in the feeding troughs of each trial each day of the pre-partum period, based on the amount of the different pre-partum feeds of the different trials provided at the beginning of each day. Feed refusals were measured daily during the pre-partum period, and water was supplied ad libitum. During the early post-partum period, for all cows utilized in Example One or Example Two, the first post-partum control feed, as modified to include any sorbitol indicated above for the different trials, was placed in the feeding troughs of the different cows participating in the different trials once daily in the morning. Thereafter, these first post-partum feeds (the first post-partum control feed, including any incorporated sorbitol dosage of a particular trial during the early post-partum period) of the different trials were lightly stirred, separately and individually, in front of the cows of the different trials three times per day during the early post-partum period to encourage additional feed ingestion by the cows. Leftover rations from the previous day's feeding were collected and weighed from each feeding trough during the early post-partum period, prior to feeding the test cows on a subsequent day. The cows of the different trials received a sufficient amount of the first post-partum feed to ensure at least about ten weight percent of the first post-partum feeds of the different trials remained in the feeding troughs of each trial each day of the early post-partum period, based on the amount of the different first post-partum feeds of the different trials provided at the beginning of each day. Feed refusals were measured daily during the early post-partum period, and water was supplied ad libitum. […] Thereafter, the second post-partum control feed were lightly stirred, separately and individually, in front of the cows of the different trials three times per day during the weeks +5 through +8 to encourage additional feed ingestion by the cows. Leftover rations from the previous day's feeding were collected and weighed from each feeding trough during weeks +5 through +8, prior to feeding the test cows on a subsequent day. […]

With `OC[C@@H](O)[C@@H](O)[C@H](O)[C@@H](O)CO` [sorbitol] the “Dry Matter Feed Intake” value (Pre-Partum Trial #1 (75/0/0 g/day in wk −3..−1/+1..+4/+5..+8), multiparious cows, weeks +1 through +8) was 44.5 lbs/day, the “Dry Matter Feed Intake” value (Pre-Partum Trial #1 (75/0/0 g/day in wk −3..−1/+1..+4/+5..+8), multiparious cows, weeks −3 through −1) was 29.9 lbs/day and the “Dry Matter Feed Intake” value (Pre-Partum Trial #1 (75/0/0 g/day in wk −3..−1/+1..+4/+5..+8), primiparious cows, weeks +1 through +8) was 34.2 lbs/day. For the same compound, the “Dry Matter Feed Intake” value (Pre-Partum Trial #1 (75/0/0 g/day in wk −3..−1/+1..+4/+5..+8), primiparious cows, weeks −3 through −1) was 17.8 lbs/day, the “increase in dry matter feed intake” value (multiparious cows, weeks +1 through +8) was “+9.6%” and the “increase in dry matter feed intake” value (primiparious cows, weeks +1 through +8) was “+7.9%”. For the same compound, the “Dry Matter Intake” value (Pre-Partum Trial #2 (75/0/100 g/day in wk −3..−1/+1..+4/+5..+8), multiparious cows, week +1) was 32.7 lbs/day, the “Change in Dry Matter Feed Intake” value (Pre-Partum Trial #2 (75/0/100 g/day in wk −3..−1/+1..+4/+5..+8), multiparious cows, week +1 versus −1) was 1.97 lbs/day and the “Dry Matter Intake” value (Pre-Partum Trial #2 (75/0/100 g/day in wk −3..−1/+1..+4/+5..+8), multiparious cows, week +2) was 42.5 lbs/day. The “Dry Matter Intake” value (Pre-Partum Trial #2 (75/0/100 g/day in wk −3..−1/+1..+4/+5..+8), multiparious cows, week +3) was 46.2 lbs/day, the “Dry Matter Intake” value (Pre-Partum Trial #2 (75/0/100 g/day in wk −3..−1/+1..+4/+5..+8), multiparious cows, week +4) was 50.1 lbs/day and the “Dry Matter Intake” value (Pre-Partum Trial #2 (75/0/100 g/day in wk −3..−1/+1..+4/+5..+8), multiparious cows, week +5) was 52.4 lbs/day. For the same compound, the “Dry Matter Intake” value (Pre-Partum Trial #2 (75/0/100 g/day in wk −3..−1/+1..+4/+5..+8), multiparious cows, week +6) was 53.9 lbs/day, the “Dry Matter Intake” value (Pre-Partum Trial #2 (75/0/100 g/day in wk −3..−1/+1..+4/+5..+8), multiparious cows, week +7) was 56.1 lbs/day and the “Dry Matter Intake” value (Pre-Partum Trial #2 (75/0/100 g/day in wk −3..−1/+1..+4/+5..+8), multiparious cows, week +8) was 53.8 lbs/day. For the same compound, the “Dry Matter Intake” value (Pre-Partum Trial #2 (75/0/100 g/day in wk −3..−1/+1..+4/+5..+8), multiparious cows, week −1) was 30.7 lbs/day, the “Dry Matter Intake” value (Pre-Partum Trial #2 (75/0/100 g/day in wk −3..−1/+1..+4/+5..+8), multiparious cows, week −2) was 33.5 lbs/day and the “Change in Dry Matter Feed Intake” value (Pre-Partum Trial #2 (75/0/100 g/day in wk −3..−1/+1..+4/+5..+8), multiparious cows, week −2 versus −1) was −2.88 lbs/day. For the same compound, the “Dry Matter Intake” value (Pre-Partum Trial #2 (75/0/100 g/day in wk −3..−1/+1..+4/+5..+8), multiparious cows, week −3) was 30.9 lbs/day, the “Dry Matter Intake” value (Pre-Partum Trial #2 (75/0/100 g/day in wk −3..−1/+1..+4/+5..+8), multiparious cows, weeks +1 through +4) was 42.9 lbs/day and the “Dry Matter Intake” value (Pre-Partum Trial #2 (75/0/100 g/day in wk −3..−1/+1..+4/+5..+8), multiparious cows, weeks +1 through +8) was 48.4 lbs/day. The “Dry Matter Intake” value (Pre-Partum Trial #2 (75/0/100 g/day in wk −3..−1/+1..+4/+5..+8), multiparious cows, weeks +5 through +8) was 54.2 lbs/day, the “Dry Matter Intake” value (Pre-Partum Trial #2 (75/0/100 g/day in wk −3..−1/+1..+4/+5..+8), multiparious cows, weeks −3 through −1) was 31.8 lbs/day and the “decrease in dry matter feed intake” value (Pre-Partum Trial #2 (75 g/day pre-partum) versus Control Trial #2, multiparious cows, pre-partum period (weeks −3 through −1)) was 7.0%. The “Dry Matter Intake” value (Pre/Post Trial #1 (150/125/100 g/day in wk −3..−1/+1..+4/+5..+8), multiparious cows, week +1) was 36.6 lbs/day, the “Dry Matter Feed Intake” value (Pre/Post Trial #1 (150/125/100 g/day in wk −3..−1/+1..+4/+5..+8), multiparious cows, week +1, two-trial comparison with Control Trial #2 (Table 22)) was 36.7 lbs/day and the “Change in Dry Matter Feed Intake” value (Pre/Post Trial #1 (150/125/100 g/day in wk −3..−1/+1..+4/+5..+8), multiparious cows, week +1 versus −1) was 3.37 lbs/day. For the same compound, the “Change in Dry Matter Feed Intake” value (Pre/Post Trial #1 (150/125/100 g/day in wk −3..−1/+1..+4/+5..+8), multiparious cows, week +1 versus −1, two-trial comparison with Control Trial #2 (Table 22)) was 3.35 lbs/day, the “Dry Matter Intake” value (Pre/Post Trial #1 (150/125/100 g/day in wk −3..−1/+1..+4/+5..+8), multiparious cows, week +2) was 45.3 lbs/day and the “Dry Matter Feed Intake” value (Pre/Post Trial #1 (150/125/100 g/day in wk −3..−1/+1..+4/+5..+8), multiparious cows, week +2, two-trial comparison with Control Trial #2 (Table 22)) was 45.6 lbs/day. For the same compound, the “Dry Matter Intake” value (Pre/Post Trial #1 (150/125/100 g/day in wk −3..−1/+1..+4/+5..+8), multiparious cows, week +3) was 48.5 lbs/day, the “Dry Matter Feed Intake” value (Pre/Post Trial #1 (150/125/100 g/day in wk −3..−1/+1..+4/+5..+8), multiparious cows, week +3, two-trial comparison with Control Trial #2 (Table 22)) was 48.8 lbs/day and the “Dry Matter Intake” value (Pre/Post Trial #1 (150/125/100 g/day in wk −3..−1/+1..+4/+5..+8), multiparious cows, week +4) was 51.2 lbs/day. For the same compound, the “Dry Matter Feed Intake” value (Pre/Post Trial #1 (150/125/100 g/day in wk −3..−1/+1..+4/+5..+8), multiparious cows, week +4, two-trial comparison with Control Trial #2 (Table 22)) was 51.5 lbs/day, the “Dry Matter Intake” value (Pre/Post Trial #1 (150/125/100 g/day in wk −3..−1/+1..+4/+5..+8), multiparious cows, week +5) was 53.9 lbs/day and the “Dry Matter Feed Intake” value (Pre/Post Trial #1 (150/125/100 g/day in wk −3..−1/+1..+4/+5..+8), multiparious cows, week +5, two-trial comparison with Control Trial #2 (Table 22)) was 54.2 lbs/day. The “Dry Matter Intake” value (Pre/Post Trial #1 (150/125/100 g/day in wk −3..−1/+1..+4/+5..+8), multiparious cows, week +6) was 53.7 lbs/day, the “Dry Matter Feed Intake” value (Pre/Post Trial #1 (150/125/100 g/day in wk −3..−1/+1..+4/+5..+8), multiparious cows, week +6, two-trial comparison with Control Trial #2 (Table 22)) was 54.1 lbs/day and the “Dry Matter Intake” value (Pre/Post Trial #1 (150/125/100 g/day in wk −3..−1/+1..+4/+5..+8), multiparious cows, week +7) was 54.5 lbs/day.
